Data from patent publication US20200231638A1, “STABILIZED ANTI-MICROBIAL PEPTIDES” (priority 2015, published 2020).
Bridge positions count the residues as written; N and C are the ends. Square brackets hold non-standard residues; d marks the D form. Peptide text beside a SMILES is read from it. R8 = C=CCCCCCC[C@@](C)(N)C(=O)O; S5 = C=CCCC[C@](C)(N)C(=O)O; Nle = CCCC[C@H](N)C(=O)O

Assays:
S. aureus = format: cell-based, Staphylococcus aureus
Experimental: (§1) Antimicrobial Activity Assay:
(§2) The following microbroth dilution protocol was adapted to determine the minimum inhibitory concentration (MIC) of each peptide. First, Mueller-Hinton broth (MHB) was passed through an anion exchange column to remove polyanionic species and generate refined MHB. […] Briefly, bacterial cells was grown overnight in refined MHB at 37° C. and then diluted and allowed to grow again for several hours. Serial dilutions of peptide stocks in water (10 μl) were prepared using clear round-bottom polypropylene 96-well plates. Then 90 μl of bacteria in refined MHB was added to give a final inoculum of 5×10^5 CFU/ml. The plates were then covered with porous tape to reduce evaporation, and incubated for 20-24 hours at 37° C. The MIC is the minimum peptide concentration at which no visible growth was observed.

P. aeruginosa = format: cell-based, Pseudomonas aeruginosa
Experimental: as §1, §2

human red blood cells = format: cell-based; conditions: red cells of human, 1 h, 25
Experimental: FIG. 5 is a series of line graphs depicting the hemolytic activity of magainin II and stapled analogues. Peptides were incubated with 1% (v/v) human red blood cells in phosphate-buffered solution for 1 hour at 37° C. and then the supernatant was isolated and the amount of hemoglobin released was measured at 540 nm. % hemolysis was calculated relative to an untreated control.
Hemolytic Activity Assay:
For the determination of hemolytic activity, human blood samples were centrifuged to isolate red blood cells (RBCs), which are then washed and suspended in phosphate-buffered saline to yield a 1% (v/v) suspension. The suspension was then added to serial dilutions of peptide stocks in water in clear round-bottom polypropylene 96-well plates and the plates were incubated for 1 hour at 37° C. After incubation, the plates were centrifuged and the supernatant was isolated to determine the amount of hemoglobin released using a spectrophotometer (570 nm), according to the equation: % Hemolysis=(Treated Absorbance−Untreated Control Absorbance)/(1% Triton-X100 Treated Absorbance−Untreated Control Absorbance). The minimum hemolytic concentration (MHC) is the peptide concentration at which there is less than 1% hemoglobin release.

E. coli = format: cell-based, Escherichia coli
Experimental: as §1, §2

B. cereus = format: cell-based, Bacillus cereus
Experimental: as §1, §2

Compound	MIC S. aureus (S. aureus)	MIC P. aeruginosa (P. aeruginosa)	MIC E. coli (E. coli)	MIC B. cereus (B. cereus)	% Hemolysis at 25 μg/ml (human red blood cells)
CCCC[C@H](NC(=O)[C@]1(C)CCCC=CCCC[C@](C)(NC(=O)[C@H](C)NC(=O)[C@H](CCCCN)NC(=O)CNC(=O)[C@H](Cc2ccccc2)NC(=O)[C@H](CCCCN)NC(=O)[C@H](CCCCN)NC(=O)[C@H](CCCCN)NC(=O)[C@H](Cc2c[nH]cn2)NC(=O)[C@H](Cc2c[nH]cn2)NC(=O)[C@]2(C)CCCC=CCCC[C@](C)(NC(=O)CN)C(=O)NCC(=O)N[C@@H](CCCCN)C(=O)N[C@@H](Cc3ccccc3)C(=O)N2)C(=O)N[C@@H](C(C)C)C(=O)N[C@@H](Cc2c[nH]cn2)C(=O)N[C@@H](CCC(=O)O)C(=O)N1)C(=O)N[C@@H](CCC(=O)O)C(=O)N[C@@H](CO)C(N)=O [Mag(i + 4)1, 15(S8H, A9K, G18H, N21E)] (H-G[S5]GKF[S5]HHKKKFGKA[S5]VHE[S5][Nle]ES-NH2; staple 2-6, 16-20; N-terminus assumed)	>50 µg/mL	12.5 µg/mL	3.1 µg/mL	50 µg/mL	4.2%
CCCC[C@H](NC(=O)[C@@H](NC(=O)[C@H](CCC(=O)O)NC(=O)[C@]1(C)CCCC=CCCCCCC[C@@](C)(NC(=O)[C@H](CCCCN)NC(=O)[C@H](C)NC(=O)[C@H](CO)NC(=O)[C@H](Cc2c[nH]cn2)NC(=O)[C@H](CC(C)C)NC(=O)[C@H](Cc2ccccc2)NC(=O)[C@H](CCCCN)NC(=O)CNC(=O)[C@@H](NC(=O)CN)[C@@H](C)CC)C(=O)N[C@@H](Cc2ccccc2)C(=O)NCC(=O)N[C@@H](CCCCN)C(=O)N[C@@H](C)C(=O)N[C@@H](Cc2ccccc2)C(=O)N[C@@H](C(C)C)C(=O)N1)[C@@H](C)CC)C(=O)N[C@@H](CC(N)=O)C(=O)N[C@@H](CO)C(N)=O [Mag(i + 7)10] (H-GIGKFLHSAK[R8]FGKAFV[S5]EI[Nle]NS-NH2; staple 11-18)	3.1 µg/mL	6.2 µg/mL	3.1 µg/mL	6.2 µg/mL	53.1%
CCCC[C@H](NC(=O)[C@]1(C)CCCC=CCCC[C@](C)(NC(=O)[C@H](C)NC(=O)[C@H](CCCCN)NC(=O)CNC(=O)[C@H](Cc2ccccc2)NC(=O)[C@H](CCCCN)NC(=O)[C@H](CCCCN)NC(=O)[C@H](Cc2c[nH]cn2)NC(=O)[C@H](CO)NC(=O)[C@]2(C)CCCC=CCCC[C@](C)(NC(=O)[C@H](CCCCN)NC(=O)CN)C(=O)N[C@@H](CCCCN)C(=O)N[C@@H](Cc3ccccc3)C(=O)N[C@@H](CC(C)C)C(=O)N2)C(=O)N[C@@H](C(C)C)C(=O)NCC(=O)N[C@@H](CCC(=O)O)C(=O)N1)C(=O)N[C@@H](CCC(=O)O)C(=O)N[C@@H](CO)C(N)=O [Mag(i + 4)2, 15(I2K, A9H, N21E)] (H-GK[S5]KFL[S5]SHKKFGKA[S5]VGE[S5][Nle]ES-NH2; staple 3-7, 16-20)	50 µg/mL	12.5 µg/mL	3.1 µg/mL	25 µg/mL	1.8%
CCCC[C@H](NC(=O)[C@]1(C)CCCC=CCCC[C@](C)(NC(=O)[C@H](C)NC(=O)[C@H](CCCCN)NC(=O)CNC(=O)[C@H](Cc2ccccc2)NC(=O)[C@H](CCCCN)NC(=O)[C@H](CCCCN)NC(=O)[C@H](CCCCN)NC(=O)[C@H](CO)NC(=O)[C@]2(C)CCCC=CCCC[C@](C)(NC(=O)[C@@H](NC(=O)CN)[C@@H](C)CC)C(=O)N[C@@H](CCCCN)C(=O)N[C@@H](Cc3ccccc3)C(=O)N[C@@H](CC(C)C)C(=O)N2)C(=O)N[C@@H](C(C)C)C(=O)NCC(=O)N[C@@H](CCC(=O)O)C(=O)N1)C(=O)N[C@@H](CC(N)=O)C(=O)N[C@@H](CO)C(N)=O [Mag(i + 4)2, 15(A9K), GIXKFLXSKKKFGKAXVGEXBNS] (H-GI[S5]KFL[S5]SKKKFGKA[S5]VGE[S5][Nle]NS-NH2; staple 3-7, 16-20)	3.1 µg/mL	3.1 µg/mL	1.6 µg/mL	3.1 µg/mL	–
CCCC[C@H](NC(=O)[C@@H](NC(=O)[C@H](CCC(=O)O)NC(=O)CNC(=O)[C@@H](NC(=O)[C@H](Cc1ccccc1)NC(=O)[C@H](C)NC(=O)[C@H](CCCCN)NC(=O)CNC(=O)[C@H](Cc1ccccc1)NC(=O)[C@]1(C)CCCC=CCCC[C@](C)(NC(=O)[C@H](CC(C)C)NC(=O)[C@H](Cc2ccccc2)NC(=O)[C@H](CCCCN)NC(=O)CNC(=O)[C@@H](NC(=O)CN)[C@@H](C)CC)C(=O)N[C@@H](CO)C(=O)N[C@@H](C)C(=O)N[C@@H](CCCCN)C(=O)N1)C(C)C)[C@@H](C)CC)C(=O)N[C@@H](CC(N)=O)C(=O)N[C@@H](CO)C(N)=O [Mag(i + 4)6, GIGKFLXSAKXFGKAFVGEIBNS] (H-GIGKFL[S5]SAK[S5]FGKAFVGEI[Nle]NS-NH2; staple 7-11)	25 µg/mL	25 µg/mL	6.2 µg/mL	12.5 µg/mL	–

Now from value to compound, other results behind:

MIC S. aureus (S. aureus)	MIC P. aeruginosa (P. aeruginosa)	MIC E. coli (E. coli)	MIC B. cereus (B. cereus)	Compound	% Hemolysis at 25 μg/ml (human red blood cells)
23 µg/mL	3.1 µg/mL	1.6 µg/mL	12.5 µg/mL	CCCC[C@H](NC(=O)[C@]1(C)CCCC=CCCC[C@](C)(NC(=O)[C@H](C)NC(=O)[C@H](CCCCN)NC(=O)CNC(=O)[C@H](Cc2ccccc2)NC(=O)[C@H](CCCCN)NC(=O)[C@H](CCCCN)NC(=O)[C@H](C)NC(=O)[C@H](CO)NC(=O)[C@H](Cc2c[nH]cn2)NC(=O)[C@H](CC(C)C)NC(=O)[C@H](Cc2ccccc2)NC(=O)[C@H](CCCCN)NC(=O)CNC(=O)[C@H](CCCCN)NC(=O)CN)C(=O)N[C@@H](C(C)C)C(=O)NCC(=O)N[C@@H](CCC(=O)O)C(=O)N1)C(=O)N[C@@H](CC(N)=O)C(=O)N[C@@H](CO)C(N)=O [Mag(i + 4)15(I2K), GKGKFLHSAKKFGKAXVGEXBNS] (H-GKGKFLHSAKKFGKA[S5]VGE[S5][Nle]NS-NH2; staple 16-20)	2.3%
25 µg/mL	3.1 µg/mL	1.6 µg/mL	12.5 µg/mL	CCCC[C@H](NC(=O)[C@]1(C)CCCC=CCCC[C@](C)(NC(=O)[C@H](C)NC(=O)[C@H](CCCCN)NC(=O)CNC(=O)[C@H](Cc2ccccc2)NC(=O)[C@H](CCCCN)NC(=O)[C@H](CCCCN)NC(=O)[C@H](C)NC(=O)[C@H](CO)NC(=O)[C@H](Cc2c[nH]cn2)NC(=O)[C@H](CC(C)C)NC(=O)[C@H](Cc2ccccc2)NC(=O)[C@H](CCCCN)NC(=O)CNC(=O)[C@@H](NC(=O)[C@@H](N)CCCCN)[C@@H](C)CC)C(=O)N[C@@H](C(C)C)C(=O)NCC(=O)N[C@@H](CCC(=O)O)C(=O)N1)C(=O)N[C@@H](CC(N)=O)C(=O)N[C@@H](CO)C(N)=O [Mag(i + 4)15(G1K), KIGKFLHSAKKFGKAXVGEXBNS] (H-KIGKFLHSAKKFGKA[S5]VGE[S5][Nle]NS-NH2; staple 16-20)	4.5%
>50 µg/mL	>50 µg/mL	50 µg/mL	>50 µg/mL	CCCC[C@H](NC(=O)[C@]1(C)CCCC=CCCC[C@](C)(NC(=O)[C@H](C)NC(=O)[C@H](CCCCN)NC(=O)CNC(=O)[C@H](CCC(=O)O)NC(=O)[C@H](CCCCN)NC(=O)[C@H](CCCCN)NC(=O)[C@H](C)NC(=O)[C@H](CO)NC(=O)[C@H](Cc2c[nH]cn2)NC(=O)[C@H](CC(C)C)NC(=O)[C@H](Cc2ccccc2)NC(=O)[C@H](CCCCN)NC(=O)CNC(=O)[C@@H](NC(=O)CN)[C@@H](C)CC)C(=O)N[C@@H](C(C)C)C(=O)NCC(=O)N[C@@H](CCC(=O)O)C(=O)N1)C(=O)N[C@@H](CC(N)=O)C(=O)N[C@@H](CO)C(N)=O [Mag(i + 4)15(F12E), GIGKFLHSAKKEGKAXVGEXBNS] (H-GIGKFLHSAKKEGKA[S5]VGE[S5][Nle]NS-NH2; staple 16-20)	0.6%
>50 µg/mL	12.5 µg/mL	3.1 µg/mL	25 µg/mL	CCCC[C@H](NC(=O)[C@@H](NC(=O)[C@H](CCC(=O)O)NC(=O)CNC(=O)[C@@H](NC(=O)[C@H](Cc1ccccc1)NC(=O)[C@H](C)NC(=O)[C@H](CCCCN)NC(=O)CNC(=O)[C@H](Cc1ccccc1)NC(=O)[C@H](CCCCN)NC(=O)[C@H](CCCCN)NC(=O)[C@H](C)NC(=O)[C@H](CO)NC(=O)[C@H](Cc1c[nH]cn1)NC(=O)[C@]1(C)CCCC=CCCC[C@](C)(NC(=O)CN)C(=O)NCC(=O)N[C@@H](CCCCN)C(=O)N[C@@H](Cc2ccccc2)C(=O)N1)C(C)C)[C@@H](C)CC)C(=O)N[C@@H](CC(N)=O)C(=O)N[C@@H](CO)C(N)=O [Mag(i + 4)1, GXGKFXHSAKKFGKAFVGEIBNS] (H-G[S5]GKF[S5]HSAKKFGKAFVGEI[Nle]NS-NH2; staple 2-6)	–
